The source of these data is patent US20160145267A1, “HETEROARYL SUBSTITUTED PYRAZOLES” (BAYER PHARMA AKTIENGESELLSCHAFT, priority 2013, published 2016).

The target in experiment [1] is T1, catalytic domain of human Bub1 (amino acids 704-1085) (Homo sapiens, UniProt O43683).
T1 construct: catalytic domain of human Bub1 (amino acids 704-1085); His6 (N); made in house; host or cells: Hi5 insect cells
The experiment is described as follows: Bub1 kinase assay (TR-FRET). Format: biochemical. How it is done:
To this end, 100-fold concentrated compound solutions (in DMSO) were previously prepared by serial dilution (1:3.4) of 2 mM stocks in a clear low volume 384-well source microtiter plate (Greiner Bio-One, Frickenhausen, Germany), from which 50 nL of compounds were transferred into a black low volume test microtiter plate from the same supplier. […] The resulting mixture (5 μL final volume) was incubated at 22° C. during 60 min., and the reaction was stopped by the addition of 5 μL of an aqueous EDTA-solution (50 mM EDTA, in 100 mM HEPES pH 7.5 and 0.2% (w/v) bovine serum albumin) which also contained the TR-FRET detection reagents (0.2 μM streptavidin-XL665 [Cisbio Bioassays, Codolet, France] and 1 nM anti-phoshoSerine antibody [Merck Millipore, cat. #35-001] and 0.4 nM LANCE EU-W1024 labeled anti-mouse IgG antibody [Perkin-Elmer, product no. AD0077, alternatively a Terbium-cryptate-labeled anti-mouse IgG antibody from Cisbio Bioassays can be used]). The stopped reaction mixture was further incubated 1 h at 22° C. in order to allow the formation of complexes between peptides and detection reagents. Subsequently, the amount of product was evaluated by measurement of the resonance energy transfer from the Eu-chelate-antibody complex recognizing the Phosphoserine residue to the streptavidin-XL665 bound to the biotin moiety of the peptide.
(Time-resolved FRET reads energy transfer from a long-lived donor to a nearby acceptor.)

Another experiment deals with HeLa cell line. The experiment is described as follows: Proliferation assay (HeLa cell line). The experiment is classed as cell-based. Conditions: Homo sapiens, 96 h, read-out: Biological Assay 2: Proliferation assay (HeLa cell line) median IC50. As for the experimental part: Cultivated tumor cells (cells were ordered from ATCC, except HeLa-MaTu and HeLa-MaTu-ADR, which were ordered from EPO-GmbH, Berlin) were plated at a density of 1000 to 5000 cells/well, depending on the growth rate of the respective cell line, in a 96-well multititer plate in 200 μL of their respective growth medium supplemented 10% fetal calf serum. After 24 hours, the cells of one plate (zero-point plate) were stained with crystal violet (see below), while the medium of the other plates was replaced by fresh culture medium (200 μL), to which the test substances were added in various concentrations (0 μM, as well as in the range of 0.001-10 μM; the final concentration of the solvent dimethyl sulfoxide was 0.5%). The cells were incubated for 4 days in the presence of test substances. Cell proliferation was determined by staining the cells with crystal violet: the cells were fixed by adding 20 μL/measuring point of an 11% glutaric aldehyde solution for 15 minutes at room temperature. After three washing cycles of the fixed cells with water, the plates were dried at room temperature. The cells were stained by adding 100 μL/measuring point of a 0.1% crystal violet solution (pH 3.0). After three washing cycles of the stained cells with water, the plates were dried at room temperature. The dye was dissolved by adding 100 μl/measuring point of a 10% acetic acid solution. Absorbtion was determined by photometry at a wavelength of 595 nm. The change of cell number, in percent, was calculated by normalization of the measured values to the absorbtion values of the zero-point plate (=0%) and the absorbtion of the untreated (0 μm) cells (=100%). The IC50 values were determined by means of a 4 parameter fit.

The mark [2] stands for this setting: 10 μM ATP, 1 μM peptide substrate, TR-FRET, read-out: Biological Assay 1: Bub1 kinase assay median IC50.
Where [3] appears, read: 4 days incubation, crystal violet staining.

Molecules are shown by their SMILES. pIC50: −log10 of the molar value. Read-outs that look alike come from different tables or passages of the source.

T1 sequence (O43683 704-1085): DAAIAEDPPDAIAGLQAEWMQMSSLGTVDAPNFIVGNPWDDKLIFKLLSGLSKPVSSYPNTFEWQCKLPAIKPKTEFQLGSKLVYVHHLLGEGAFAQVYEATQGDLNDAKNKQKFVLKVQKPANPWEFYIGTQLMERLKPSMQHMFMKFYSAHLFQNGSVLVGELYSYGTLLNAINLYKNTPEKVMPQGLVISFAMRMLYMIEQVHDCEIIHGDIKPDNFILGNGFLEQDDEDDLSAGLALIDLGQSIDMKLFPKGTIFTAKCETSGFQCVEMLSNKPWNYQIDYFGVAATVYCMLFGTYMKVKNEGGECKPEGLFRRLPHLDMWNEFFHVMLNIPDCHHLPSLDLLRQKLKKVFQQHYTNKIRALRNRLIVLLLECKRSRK

As for `CCOc1cc(F)c(Cn2nc(-c3nc(N)cc(Nc4ccnnc4)n3)c(C)c2C2CC2)c(F)c1` [Example 2-1-23, 2-[5-cyclopropyl-1-(4-ethoxy-2,6-difluorobenzyl)-4-methyl-1H-pyrazol-3-yl]-N-(pyridazin-4-yl)pyrimidine-4,6-diamine], the pIC50 is 7.74 in experiment [1] (setting [2]) and 5.22 with HeLa cell line.
As to `CCOc1cc(F)c(Cn2nc(-c3nc(N)c(OCCOC)c(Nc4ccncn4)n3)c(C)c2C2CC2)c(F)c1` [Example 2-1-26, 2-[5-cyclopropyl-1-(4-ethoxy-2,6-difluorobenzyl)-4-methyl-1H-pyrazol-3-yl]-5-(2-methoxyethoxy)-N-(pyrimidin-4-yl)pyrimidine-4,6-diamine], the pIC50 was 8.04 in experiment [1] and 5.38 with HeLa cell line (setting [3]).
For `C=CC(=O)Nc1cc(Nc2ccncc2)nc(-c2nn(Cc3c(F)cc(OCC)cc3F)c(C3CC3)c2C)n1` [Example 2-1-22, N-{2-[5-cyclopropyl-1-(4-ethoxy-2,6-difluorobenzyl)-4-methyl-1H-pyrazol-3-yl]-6-(pyridin-4-ylamino)pyrimidin-4-yl}prop-2-enamide] the same measures were 7.23 and 5.01.
For the molecule `CCOc1cc(F)c(Cn2nc(-c3nc(NC(=O)NC4CCCCC4)c(N4CCOCC4)c(Nc4ccncc4)n3)c(C)c2C2CC2)c(F)c1` [Example 2-1-20, 1-cyclohexyl-3-{2-[5-cyclopropyl-1-(4-ethoxy-2,6-difluorobenzyl)-4-methyl-1H-pyrazol-3-yl]-5-(morpholin-4-yl)-6-(pyridin-4-ylamino)pyrimidin-4-yl}urea], the pIC50 is 6.04 in experiment [1] and 5.48 in the experiment with HeLa cell line (setting [3]).
With `CCOc1cc(F)c(Cn2nc(-c3nc(NC(=O)NC4CCCCC4)c(N4CCOCC4)c(Nc4ccncn4)n3)c(C)c2C2CC2)c(F)c1` [Example 2-1-21, 1-cyclohexyl-3-{2-[5-cyclopropyl-1-(4-ethoxy-2,6-difluorobenzyl)-4-methyl-1H-pyrazol-3-yl]-5-(morpholin-4-yl)-6-(pyrimidin-4-ylamino)pyrimidin-4-yl}urea], the pIC50 in experiment [1] (setting [2]) is 5.85; with HeLa cell line, 5.13.
For `CCOc1cc(F)c(Cn2nc(-c3nc(N)c(OC)c(Nc4ccncc4)n3)c(C)c2C2CC2)c(F)c1` [Example 2-1-4, 2-[5-cyclopropyl-1-(4-ethoxy-2,6-difluorobenzyl)-4-methyl-1H-pyrazol-3-yl]-5-methoxy-N-(pyridin-4-yl)pyrimidine-4,6-diamine] the same measures were 8.32 and 5.46.
For `CCOc1cc(F)c(Cn2nc(-c3nc(Nc4ccncc4)c(NS(=O)(=O)CC)c(Nc4ccncc4)n3)c(C)c2C2CC2)c(F)c1` [Example 2-2-17, N-{2-[5-cyclopropyl-1-(4-ethoxy-2,6-difluorobenzyl)-4-methyl-1H-pyrazol-3-yl]-4,6-bis(pyridin-4-ylamino)pyrimidin-5-yl}ethanesulfonamide] the same measures were 6.12 and < 5.00.
For `CCOc1cc(F)c(Cn2nc(-c3nc(Nc4ccncn4)c(OCCOC)c(Nc4ccncn4)n3)c(C)c2C2CC2)c(F)c1` [Example 2-2-13, 2-[5-cyclopropyl-1-(4-ethoxy-2,6-difluorobenzyl)-4-methyl-1H-pyrazol-3-yl]-5-(2-methoxyethoxy)-N,N′-di(pyrimidin-4-yl)pyrimidine-4,6-diamine], the pIC50 in experiment [1] was 6.92; in the experiment on HeLa cell line (setting [3]), 5.00.
For the molecule `CCOc1cc(F)c(Cn2nc(-c3nc(N)nc(Nc4ccncc4)n3)c(C)c2C2CC2)c(F)c1` [Example 2-1-8, 6-[5-cyclopropyl-1-(4-ethoxy-2,6-difluorobenzyl)-4-methyl-1H-pyrazol-3-yl]-N-(pyridin-4-yl)-1,3,5-triazine-2,4-diamine], the pIC50 in experiment [1] is 8.15; with HeLa cell line (setting [3]), 5.42.
